US6586402B1, “LH-RH peptide analogues, their uses and pharmaceutical compositions containing them” (Laboratoire Theramex, priority 1997, dated 2003)
Entries after “also recorded” stand apart in the source; their conditions may differ. Like-named read-outs stand apart in the source and are kept apart here. Values belong to the molecule of their own block, whether it stands above or below them. Square brackets hold non-standard residues; d marks the D form. Peptide text beside a SMILES is read from it. dPhe(4-Cl) = N[C@H](Cc1ccc(Cl)cc1)C(=O)O; d2Nal = N[C@H](Cc1ccc2ccccc2c1)C(=O)O; d(hCit) = NC(=O)NCCCC[C@@H](N)C(=O)O; dCit = NC(=O)NCCC[C@@H](N)C(=O)O; tBuAla = CC(C)(C)C[C@H](N)C(=O)O; d3Pal = N[C@H](Cc1cccnc1)C(=O)O; pGlu = O=C1CC[C@@H](C(=O)O)N1

What was measured:
LH-RH receptors [1] = biological target: T1, LH-RH receptors (Rattus norvegicus, UniProt P30969); assay: Stimulation of testosterone secretion in adult male rats after subcutaneous injection (agonist activity in vivo); set-up: exert an agonist activity upon the LH-RH receptors in vivo; from tissue; host or cells: whole animal, adult male Sprague-Dawley rats; species or system Sprague-Dawley rats; conditions: for Total plasma testosterone: Table 2, 10 ng/kg subcutaneous in PBS, blood two hours later, male Sprague-Dawley rats, vehicle 2.7 ± 0.3; for agonistic potency in words: comment on Tables 2 and 3
T1 sequence (P30969 1-327): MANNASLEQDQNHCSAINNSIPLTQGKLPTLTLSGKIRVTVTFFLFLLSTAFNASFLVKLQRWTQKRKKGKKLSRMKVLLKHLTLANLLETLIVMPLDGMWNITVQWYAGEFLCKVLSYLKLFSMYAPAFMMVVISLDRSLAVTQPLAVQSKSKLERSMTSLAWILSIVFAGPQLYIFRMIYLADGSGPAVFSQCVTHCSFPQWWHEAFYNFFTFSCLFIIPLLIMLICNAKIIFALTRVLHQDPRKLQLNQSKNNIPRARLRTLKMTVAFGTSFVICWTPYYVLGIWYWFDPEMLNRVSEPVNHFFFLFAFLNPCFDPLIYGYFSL
Method: The peptides according to the general formula (IIa) exert an agonist activity upon the LH-RH receptors in vivo, resulting in the stimulation of LH secretion by the pituitary, which, in males, stimulates the secretion of testosterone by the testis.
Two hours later, blood samples were drawn for total plasma testosterone determination by direct radioimmunoassay (Immunotech).
At this intermediate dose of 10 ng/kg, several examples with Npg^7 or Ada^7 in place of Leu^7 according to the invention were screened for agonistic activity (Tables 2 and 3). When available from Bachem (France) or Sigma (France), the corresponding standard agonist with Leu^7 was tested for comparison.

LH-RH receptors [2] = biological target: T1, LH-RH receptors; assay: biochemical
LH-RH receptors [3] = biological target: T1, LH-RH receptors
[4] = biological target: LH-RH receptors (membrane fractions of pituitaries from female Sprague Dawley rats) (rat (female Sprague Dawley)) (UniProt P30969); assay: competition with [125I]-buserelin, rat pituitary membranes; Ki by Cheng-Prusoff

- Total plasma testosterone (LH-RH receptors [1]): 23.5 ± 4.0 nmol/L
- Ki (LH-RH receptors [2]): 0.229 nM
Molecule: CCNC(=O)[C@@H]1CCCN1C(=O)[C@H](CCCNC(=N)N)NC(=O)[C@H](CC(C)(C)C)NC(=O)[C@@H](Cc1ccccc1)NC(=O)[C@H](Cc1ccc(O)cc1)NC(=O)[C@H](CO)NC(=O)[C@H](Cc1c[nH]c2ccccc12)NC(=O)[C@H](Cc1c[nH]cn1)NC(=O)[C@@H]1CCC(=O)N1 [Example 10, pGlu-His-Trp-Ser-Tyr-D-Phe-Npg-Arg-Pro-NEt]

- Total plasma testosterone (LH-RH receptors [1]): 22.9 ± 4.2 nmol/L
- Ki (LH-RH receptors [2]): 1.07 nM
Molecule: CC(C)(C)C[C@H](NC(=O)[C@@H](Cc1ccc2ccccc2c1)NC(=O)[C@H](Cc1ccc(O)cc1)NC(=O)[C@H](CO)NC(=O)[C@H](Cc1c[nH]c2ccccc12)NC(=O)[C@H](Cc1c[nH]cn1)NC(=O)[C@@H]1CCC(=O)N1)C(=O)N[C@@H](CCCNC(=N)N)C(=O)N1CCC[C@H]1C(=O)NCC(N)=O [Example 13, pGlu-His-Trp-Ser-Tyr-D-Nal-Npg-Arg-Pro-Gly-NH2] ([pGlu]HWSY[d2Nal][tBuAla]RPG-NH2)
- agonistic potency in words (LH-RH receptors [1]; 10 ng/kg s.c.): range of potency similar to that of leuprorelin or tryptorelin

- Total plasma testosterone (LH-RH receptors [1]): 20.5 ± 5.2 nmol/L
- Ki (LH-RH receptors [2]): 0.162 nM
Molecule: CCNC(=O)[C@@H]1CCCN1C(=O)[C@H](CCCNC(=N)N)NC(=O)[C@H](CC(C)(C)C)NC(=O)[C@@H](Cc1c[nH]c2ccccc12)NC(=O)[C@H](Cc1ccc(O)cc1)NC(=O)[C@H](CO)NC(=O)[C@H](Cc1c[nH]c2ccccc12)NC(=O)[C@H](Cc1c[nH]cn1)NC(=O)[C@@H]1CCC(=O)N1 [Example 12, pGlu-His-Trp-Ser-Tyr-D-Trp-Npg-Arg-Pro-NEt]

- Ki (LH-RH receptors [2]): 0.0676 nM
- % of inhibition of ovulation (LH-RH receptors [3]; 0.25 μg/rat s.c.): 20%
- Number of ovulating females/total number of treated females (LH-RH receptors [3]; 0.25 μg/rat s.c.): 4/5
- % of inhibition of ovulation (LH-RH receptors [3]; 1 μg/rat s.c.): 100%
- Number of ovulating females/total number of treated females (LH-RH receptors [3]; 1 μg/rat s.c.): 0/5
- antiovulatory activity in words (LH-RH receptors [3]; 1 μg/rat s.c.): maximal or sub-maximal activity
Molecule: CC(=O)N[C@H](Cc1ccc2ccccc2c1)C(=O)N[C@H](Cc1ccc(Cl)cc1)C(=O)N[C@H](Cc1cccnc1)C(=O)N[C@@H](CO)C(=O)N[C@@H](Cc1ccc(O)cc1)C(=O)N[C@H](CCCNC(N)=O)C(=O)N[C@@H](CC(C)(C)C)C(=O)N[C@@H](CCCNC(=N)N)C(=O)N1CCC[C@H]1C(=O)N[C@H](C)C(N)=O [Example 16, AcD-Nal-D-pClPhe-D-Pal-Ser-Tyr-D-Cit-Npg-Arg-Pro-D-Ala-NH2] (Ac-[d2Nal][dPhe(4-Cl)][d3Pal]SY[dCit][tBuAla]RP[dA]-NH2)

- Ki (LH-RH receptors [2]): 1.86 nM
Molecule: CCNC(=O)[C@@H]1CCCN1C(=O)[C@H](CCCNC(=N)N)NC(=O)[C@H](CC(C)(C)C)NC(=O)[C@@H](CC(C)(C)C)NC(=O)[C@H](Cc1ccc(O)cc1)NC(=O)[C@H](CO)NC(=O)[C@H](Cc1c[nH]c2ccccc12)NC(=O)[C@H](Cc1c[nH]cn1)NC(=O)[C@@H]1CCC(=O)N1 [Example 8, pGlu-His-Trp-Ser-Tyr-D-Npg-Npg-Arg-Pro-NEt]

- Total plasma testosterone (LH-RH receptors [1]): 48.6 ± 4.3 nmol/L
- Ki (LH-RH receptors [2]): 0.468 nM
Molecule: CCNC(=O)[C@@H]1CCCN1C(=O)[C@H](CCCNC(=N)N)NC(=O)[C@H](CC(C)(C)C)NC(=O)[C@@H](CC(C)C)NC(=O)[C@H](Cc1ccc(O)cc1)NC(=O)[C@H](CO)NC(=O)[C@H](Cc1c[nH]c2ccccc12)NC(=O)[C@H](Cc1c[nH]cn1)NC(=O)[C@@H]1CCC(=O)N1 [Example 6, pGlu-His-Trp-Ser-Tyr-D-Leu-Npg-Arg-Pro-NEt]
- activity in stimulating testosterone secretion relative to the Leu^7 counterpart (LH-RH receptors [1]; 10 ng/kg s.c.): a little more than twice as active as leuprorelin
- agonistic potency in words (LH-RH receptors [1]; 10 ng/kg s.c.): Npg^7 led to more potent agonists than Ada^7; also recorded: more potent LH-RH agonists than current therapeutic LH-RH analogues

- Ki (LH-RH receptors [2]): 0.0776 nM
- % of inhibition of ovulation (LH-RH receptors [3]; 0.25 μg/rat s.c.): 40%
- % of inhibition of ovulation (LH-RH receptors [3]; 1 μg/rat s.c.): 100%
Molecule: CC(=O)N[C@H](Cc1ccc2ccccc2c1)C(=O)N[C@H](Cc1ccc(Cl)cc1)C(=O)N[C@H](Cc1cccnc1)C(=O)N[C@@H](CO)C(=O)N[C@@H](Cc1ccc(O)cc1)C(=O)N[C@H](CCCCNC(N)=O)C(=O)N[C@@H](CC(C)(C)C)C(=O)N[C@@H](CCCNC(=N)N)C(=O)N1CCC[C@H]1C(=O)N[C@H](C)C(N)=O [Example 19, AcD-Nal-D-pClPhe-D-Pal-Ser-Tyr-D-HCit-Npg-Arg-Pro-D-Ala-NH2] (Ac-[d2Nal][dPhe(4-Cl)][d3Pal]SY[d(hCit)][tBuAla]RP[dA]-NH2)

- Total plasma testosterone (LH-RH receptors [1]): 16.7 ± 1.9 nmol/L
- Ki (LH-RH receptors [2]): 0.269 nM
Molecule: C[C@@H](NC(=O)[C@H](Cc1ccc(O)cc1)NC(=O)[C@H](CO)NC(=O)[C@H](Cc1c[nH]c2ccccc12)NC(=O)[C@H](Cc1c[nH]cn1)NC(=O)[C@@H]1CCC(=O)N1)C(=O)N[C@@H](CC(C)(C)C)C(=O)N[C@@H](CCCNC(=N)N)C(=O)N1CCC[C@H]1C(=O)NCC(N)=O [Example 3, pGlu-His-Trp-Ser-Tyr-D-Ala-Npg-Arg-Pro-Gly-NH2] ([pGlu]HWSY[dA][tBuAla]RPG-NH2)

- Total plasma testosterone (LH-RH receptors [1]): 33.8 ± 5.8 nmol/L
- Ki (LH-RH receptors [2]): 0.0977 nM
Molecule: CCNC(=O)[C@@H]1CCCN1C(=O)[C@H](CCCNC(=N)N)NC(=O)[C@H](CC(C)(C)C)NC(=O)[C@@H](C)NC(=O)[C@H](Cc1ccc(O)cc1)NC(=O)[C@H](CO)NC(=O)[C@H](Cc1c[nH]c2ccccc12)NC(=O)[C@H](Cc1c[nH]cn1)NC(=O)[C@@H]1CCC(=O)N1 [Example 4, pGlu-His-Trp-Ser-Tyr-D-Ala-Npg-Arg-Pro-NEt]

Molecule: CCNC(=O)[C@@H]1CCCN1C(=O)[C@H](CCCNC(=N)N)NC(=O)[C@H](CC(C)C)NC(=O)[C@@H](COC(C)(C)C)NC(=O)[C@H](Cc1ccc(O)cc1)NC(=O)[C@H](CO)NC(=O)[C@H](Cc1c[nH]c2ccccc12)NC(=O)[C@H](Cc1cnc[nH]1)NC(=O)[C@@H]1CCC(=O)N1 [Buserelin, reference compound]
- Ki (LH-RH receptors [2]): 0.447 nM

- Ki (LH-RH receptors [2]): 0.316 nM
Molecule: CCNC(=O)[C@@H]1CCCN1C(=O)[C@H](CCCNC(=N)N)NC(=O)[C@H](CC(C)(C)C)NC(=O)[C@@H](Cc1ccc2ccccc2c1)NC(=O)[C@H](Cc1ccc(O)cc1)NC(=O)[C@H](CO)NC(=O)[C@H](Cc1c[nH]c2ccccc12)NC(=O)[C@H](Cc1c[nH]cn1)NC(=O)[C@@H]1CCC(=O)N1 [Example 14, pGlu-His-Trp-Ser-Tyr-D-Nal-Npg-Arg-Pro-NEt]

- Total plasma testosterone (LH-RH receptors [1]): 30.9 ± 3.6 nmol/L
- Ki (LH-RH receptors [2]): 2.34 nM
Molecule: CC(C)(C)C[C@H](NC(=O)[C@@H](Cc1ccccc1)NC(=O)[C@H](Cc1ccc(O)cc1)NC(=O)[C@H](CO)NC(=O)[C@H](Cc1c[nH]c2ccccc12)NC(=O)[C@H](Cc1c[nH]cn1)NC(=O)[C@@H]1CCC(=O)N1)C(=O)N[C@@H](CCCNC(=N)N)C(=O)N1CCC[C@H]1C(=O)NCC(N)=O [Example 9, pGlu-His-Trp-Ser-Tyr-D-Phe-Npg-Arg-Pro-Gly-NH2] ([pGlu]HWSY[dF][tBuAla]RPG-NH2)
- agonistic potency in words (LH-RH receptors [1]; 10 ng/kg s.c.): range of potency similar to that of leuprorelin or tryptorelin

- pKi [4]: 9.64 -log Ki
Molecule: pGlu-His-Trp-Ser-Tyr-D-Phe-Npg-Arg-Pro-NEt (peptide)

- pKi [4]: 9.72 -log Ki
Molecule: AcD-Nal-D-pClPhe-D-Pal-Ser-Tyr-D-Cit-Npg-IprLys-Pro-D-Ala-NH2 (peptide)

- pKi [4]: 9.79 -log Ki
Molecule: pGlu-His-Trp-Ser-Tyr-D-Trp-Npg-Arg-Pro-NEt (peptide)

- pKi [4]: 8.63 -log Ki
B1: pGlu-His-Trp-Ser-Tyr-D-Phe-Npg-Arg-Pro-Gly-NH2 (peptide)
peptide: XHWSYXXRPG
modifications: pGlu at 1; D-Phe at 6; Npg at 7; C-terminal Gly-NH2 (amide)

- pKi [4]: 8.2 -log Ki
B2: pGlu-His-Trp-Ser-Tyr-D-Npg-Npg-Arg-Pro-Gly-NH2 (peptide)
peptide: XHWSYXXRPG
modifications: pGlu at 1; D-Npg at 6; Npg at 7; C-terminal Gly-NH2 (amide)

- pKi [4]: 8.97 -log Ki
B3: pGlu-His-Trp-Ser-Tyr-D-Nal-Npg-Arg-Pro-Gly-NH2 (peptide)
peptide: XHWSYXXRPG
modifications: pGlu at 1; D-Nal (3-(2-naphtyl)alanine) at 6; Npg at 7; C-terminal Gly-NH2 (amide)

- pKi [4]: 9.57 -log Ki
B4: pGlu-His-Trp-Ser-Tyr-D-Ala-Npg-Arg-Pro-Gly-NH2 (peptide)
peptide: XHWSYXXRPG
modifications: pGlu at 1; D-Ala at 6; Npg at 7; C-terminal Gly-NH2 (amide)

- pKi [4]: 10.1 -log Ki
B5: AcD-Nal-D-pClPhe-D-Pal-Ser-Tyr-D-HCit-Npg-Arg-Pro-D-Ala-NH2 (peptide)
peptide: Ac-X[dPhe(4-Cl)][d3Pal]SY[d(hCit)][tBuAla]RP[dA]-NH2
modifications: not fully specified (residue 1); printed as AcD-Nal-D-pClPhe-D-Pal-Ser-Tyr-D-HCit-Npg-Arg-Pro-D-Ala-NH2; also: trifluoroacetate salt

- pKi [4]: 10.2 -log Ki
B6: AcD-Nal-D-pClPhe-D-Pal-Ser-Tyr-D-Cit-Npg-Arg-Pro-D-Ala-NH2 (peptide)
peptide: Ac-X[dPhe(4-Cl)][d3Pal]SY[dCit][tBuAla]RP[dA]-NH2
modifications: not fully specified (residue 1); printed as AcD-Nal-D-pClPhe-D-Pal-Ser-Tyr-D-Cit-Npg-Arg-Pro-D-Ala-NH2; also: trifluoroacetate salt
